Laboratory results published in PMC6253875, “Synthesis and Evaluation of Non-peptidic Cysteine Protease Inhibitors of P. falciparum Derived from Etacrynic Acid” (Molecules, 2008).

What was measured:
P. falciparum strain 3D7 = test: Antiplasmodial activity in vitro, Hoechst-33258 fluorometric assay or parasite lactate dehydrogenase test; type: cell-based; details: Plasmodium falciparum, 3D7, read-out: P. f. 3D7/W2, IC50
Description: Recombinant falcipain-2 and falcipain-3 were produced as previously described. Inhibitory activities against recombinant falcipain-2 and falcipain-3 were evaluated in fluorometric microplate assays using the substrates Cbz-Phe-Arg-AMC and Cbz-Leu-Arg-AMC (AMC, 7-amino-4-methyl-coumarin). The cysteine protease inhibitor E-64 was used as a positive control. The solvent DMSO was used as negative control. […] The in vitro data for the etacrynic acid derivatives are compared to those of the well known drug chloroquine and to E-64.
IC50 values for inhibition of falcipain-2 and falcipain-3 were determined as described previously using the fluorogenic substrates Cbz-Phe-Arg-AMC and Cbz-Leu-Arg-AMC, respectively (AMC, 7-amino-4 methylcoumarin). As a positive control the well-known cysteine protease inhibitor E-64 [7, 25, 26] and as a negative control the solvent (DMSO) was used. Dose-dependent effects of compounds on parasite development (P. falciparum strain W2) were quantified by flow cytometry according to a previously published method. First, a screening with inhibitor concentrations of […] was performed and the percentage activity of infected red blood cells (RBCs) relative to the negative control was determined. […] Chloroquine and E-64 were used as positive controls, and the solvent DMSO was used as a negative control. For selected compounds assays with the P. falciparum strain 3D7 were performed using a fluorometric assay with Hoechst-33258 [28], or the microculture tetrazolium test measuring parasite lactate dehydrogenase activity. The parasites were cultivated in vitro as described previously. Compounds were screened at concentrations between 1 nM and 100 μM. Synchronized ring stages were plated in 96-well plates at a parasitemia of 1%, in the presence of the compounds (dissolved in DMSO). Incubation of parasites with DMSO alone at a concentration of 0.5% v/v was used as a negative control. IC50 values were calculated by non-linear regression analyses using the programs GaphPad® Prism 4 and GraFit® [31, 32].

P. falciparum strain W2 = details: read-out: P. f. 3D7/W2, IC50; cited from earlier work

IC50 (P. falciparum strain 3D7): 10 ± 4.8 nM
Compound: CCN(CC)CCCC(C)Nc1ccnc2cc(Cl)ccc12 (centres unmarked) [CQ, chloroquine, reference compound]
IC50 (P. falciparum strain W2): 240 nM
